# Like-named read-outs stand apart in the source and are kept apart here.
# Assays:
# human CB1 receptors = human CB1 receptors (Homo sapiens (Human), UniProt P21554); test: functional cAMP assay, CHO cells expressing human CB1; format: cell-based
# Experimental: (§1) CHO cells expressing human CB1 or CB2 receptors are seeded 17-24 hours prior to the experiment 50.000 cells per well in a black 96 well plate with flat clear bottom (Corning Costar #3904) in DMEM (Invitrogen No. 31331), 1×HT supplement, with 10% fetal calf serum and incubated at 5% CO2 and 37° C. in a humidified incubator. The growth medium was exchanged with Krebs Ringer Bicarbonate buffer with 1 mM IBMX and incubated at 30° C. for 30 min. Compounds were added to a final assay volume of 100 μl and incubated for 30 min at 30° C. Using the cAMP-Nano-TRF detection kit the assay (Roche Diagnostics) was stopped by the addition of 50 μl lysis reagent (Tris, NaCl, 1.5% Triton X100, 2.5% NP40, 10% NaN3) and 50 μl detection solutions (20 μM mAb Alexa700-cAMP 1:1, and 48 μM Ruthenium-2-AHA-cAMP) and shaken for 2 h at room temperature. The time-resolved energy transfer is measured by a TRF reader (Evotec Technologies GmbH), equipped with a ND:YAG laser as excitation source. The plate is measured twice with the excitation at 355 nm and at the emission with a delay of 100 ns and a gate of 100 ns, total exposure time 10 s at 730 (bandwidth 30 nm) or 645 nm (bandwidth 75 nm), respectively. The FRET signal is calculated as follows: FRET=T730-Alexa730-P(T645-B645) with P=Ru730-B730/Ru645-B645, where T730 is the test well measured at 730 nM, T645 is the test well measured at 645 nm, B730 and B645 are the buffer controls at 730 nm and 645 nm, respectively. cAMP content is determined from the function of a standard curve spanning from 10 μM to 0.13 nM cAMP.
# (§2) EC50 values were determined using Activity Base analysis (ID Business Solution, Limited). The EC50 values for a wide range of cannabinoid agonists generated from this assay were in agreement with the values published in the scientific literature.
# human CB2 receptors = human CB2 receptors (Homo sapiens (Human), UniProt P34972); test: functional cAMP assay, CHO cells expressing human CB2; format: cell-based
# Chain of human CB2 receptors (P34972 whole entry): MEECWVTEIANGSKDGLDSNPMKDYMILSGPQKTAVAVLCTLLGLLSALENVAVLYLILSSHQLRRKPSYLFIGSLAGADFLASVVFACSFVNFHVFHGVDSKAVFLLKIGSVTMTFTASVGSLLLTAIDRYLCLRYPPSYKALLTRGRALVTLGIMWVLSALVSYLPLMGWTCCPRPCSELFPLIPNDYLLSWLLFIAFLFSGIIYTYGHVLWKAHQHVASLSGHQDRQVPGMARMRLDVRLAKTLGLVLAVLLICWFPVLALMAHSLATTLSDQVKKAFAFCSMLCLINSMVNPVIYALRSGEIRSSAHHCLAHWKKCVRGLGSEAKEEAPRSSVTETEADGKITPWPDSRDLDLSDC
# Experimental: as §1, §2
# [1] = Human CB1 EC50 (uM), functional cAMP assay, CHO cells expressing human CB1
# [2] = read-out: Human CB1 EC50, functional cAMP assay, CHO cells expressing human CB1
# Chain of human CB1 receptors (P21554 whole entry): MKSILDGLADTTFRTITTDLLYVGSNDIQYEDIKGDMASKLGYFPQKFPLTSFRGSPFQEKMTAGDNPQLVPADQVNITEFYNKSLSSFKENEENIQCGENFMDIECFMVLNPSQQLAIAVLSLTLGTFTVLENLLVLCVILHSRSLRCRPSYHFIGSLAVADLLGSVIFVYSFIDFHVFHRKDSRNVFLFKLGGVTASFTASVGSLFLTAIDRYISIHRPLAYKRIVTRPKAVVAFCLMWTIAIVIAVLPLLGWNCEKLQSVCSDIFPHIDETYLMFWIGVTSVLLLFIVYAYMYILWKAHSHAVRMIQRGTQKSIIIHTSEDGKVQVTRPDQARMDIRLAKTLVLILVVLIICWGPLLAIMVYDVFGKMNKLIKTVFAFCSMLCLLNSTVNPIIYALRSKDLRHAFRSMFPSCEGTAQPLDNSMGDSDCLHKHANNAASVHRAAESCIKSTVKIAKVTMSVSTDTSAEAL
Compound,EC50 (human CB1 receptors; [1]) [µM],EC50 (human CB2 receptors; Human CB2 EC50 (uM)) [µM],EC50 (human CB1 receptors; [2]) [µM],EC50 (human CB1 receptors) [µM],EC50 (human CB2 receptors; read-out: Human CB2 EC50) [µM]
"Cc1nc([C@@](C)(NC(=O)c2cc(OCC(F)(F)F)c(N3CC(F)(F)C3)cn2)C2CC2)no1 (single isomer, unassigned) [Example 88, 5-(3,3-Difluoro-azetidin-1-yl)-4-(2,2,2-trifluoro-ethoxy)-pyridine-2-carboxylic acid [1-cyclopropyl-1-(5-methyl-[1,2,4]oxadiazol-3-yl)-ethyl]-amide]",1.79,0.0105,,,
"Cc1nc([C@@](C)(CC2CC2)NC(=O)c2cc(OCC(F)(F)F)c(N3CC(F)(F)C3)cn2)no1 (single isomer, unassigned) [Example 91, 5-(3,3-Difluoro-azetidin-1-yl)-4-(2,2,2-trifluoro-ethoxy)-pyridine-2-carboxylic acid [2-cyclopropyl-1-methyl-1-(5-methyl-[1,2,4]oxadiazol-3-yl)-ethyl]-amide]",> 10,0.0303,,,
"Cc1nc([C@](C)(CC2CC2)NC(=O)c2cc(OCC(F)(F)F)c(N3CC(F)(F)C3)cn2)no1 (single isomer, unassigned) [Example 92, 5-(3,3-Difluoro-azetidin-1-yl)-4-(2,2,2-trifluoro-ethoxy)-pyridine-2-carboxylic acid [2-cyclopropyl-1-methyl-1-(5-methyl-[1,2,4]oxadiazol-3-yl)-ethyl]-amide]",> 10,0.0214,,,
"Cc1nc([C@@](C)(CC2CC2)NC(=O)c2cc(OCC(F)(F)F)c(Cl)cn2)no1 (single isomer, unassigned) [Example 93, 5-Chloro-4-(2,2,2-trifluoro-ethoxy)-pyridine-2-carboxylic acid [2-cyclopropyl-1-methyl-1-(5-methyl-[1,2,4]oxadiazol-3-yl)-ethyl]-amide]",> 10,0.0651,,,
"Cc1nc([C@](C)(CC2CC2)NC(=O)c2cc(OCC(F)(F)F)c(Cl)cn2)no1 (single isomer, unassigned) [Example 94, 5-Chloro-4-(2,2,2-trifluoro-ethoxy)-pyridine-2-carboxylic acid [2-cyclopropyl-1-methyl-1-(5-methyl-[1,2,4]oxadiazol-3-yl)-ethyl]-amide]",> 10,0.0747,,,
"Cc1nc([C@@](C)(CS(C)(=O)=O)NC(=O)c2cc(OCC(F)(F)F)c(C3CC3)cn2)no1 (single isomer, unassigned) [Example 98, 5-Cyclopropyl-4-(2,2,2-trifluoro-ethoxy)-pyridine-2-carboxylic acid [2-methanesulfonyl-1-methyl-1-(5-methyl-[1,2,4]oxadiazol-3-yl)-ethyl]-amide]",> 10,0.0706,,,
"Cc1nc([C@](C)(CS(C)(=O)=O)NC(=O)c2cc(OCC(F)(F)F)c(C3CC3)cn2)no1 (single isomer, unassigned) [Example 99, 5-Cyclopropyl-4-(2,2,2-trifluoro-ethoxy)-pyridine-2-carboxylic acid [2-methanesulfonyl-1-methyl-1-(5-methyl-[1,2,4]oxadiazol-3-yl)-ethyl]-amide]",> 10,0.104,,,
"Cc1nc([C@@](C)(CC(C)(C)C)NC(=O)c2cc(OCC(F)(F)F)c(C3CC3)cn2)no1 (single isomer, unassigned) [Example 104, 5-Cyclopropyl-4-(2,2,2-trifluoro-ethoxy)-pyridine-2-carboxylic acid [1,3,3-trimethyl-1-(5-methyl-[1,2,4]oxadiazol-3-yl)-butyl]-amide]",> 10,0.0298,,,
"Cc1nc([C@](C)(CC(C)(C)C)NC(=O)c2cc(OCC(F)(F)F)c(C3CC3)cn2)no1 (single isomer, unassigned) [Example 105, 5-Cyclopropyl-4-(2,2,2-trifluoro-ethoxy)-pyridine-2-carboxylic acid [1,3,3-trimethyl-1-(5-methyl-[1,2,4]oxadiazol-3-yl)-butyl]-amide]",0.33,0.0023,,,
"Cc1nc(C(C)(CC2CC2)NC(=O)c2cc(OCC(F)(F)F)c(C3CCC3)cn2)no1 (single isomer, unassigned) [Example 116, 5-cyclobutyl-N-[1-cyclopropyl-2-(5-methyl-1,2,4-oxadiazol-3-yl)propan-2-yl]-4-(2,2,2-trifluoroethoxy)pyridine-2-carboxamide]",> 10,0.0041,,,
"Cc1nc(C(C)(CC2CC2)NC(=O)c2cc(OCC(F)(F)F)c(C3CCC3)cn2)no1 (single isomer, unassigned) [Example 117, 5-cyclobutyl-N-[1-cyclopropyl-2-(5-methyl-1,2,4-oxadiazol-3-yl)propan-2-yl]-4-(2,2,2-trifluoroethoxy)pyridine-2-carboxamide]",,0.0024,> 10,,
"Cc1nc(C(C)(CS(C)(=O)=O)NC(=O)c2cc(OCC(F)(F)F)c(C3CCC3)cn2)no1 (single isomer, unassigned) [Example 124, 5-cyclobutyl-N-[1-methyl-1-(5-methyl-1,2,4-oxadiazol-3-yl)-2-methylsulfonyl-ethyl]-4-(2,2,2-trifluoroethoxy)pyridine-2-carboxamide]",> 10,0.0159,,,
"Cc1nc(C(C)(CS(C)(=O)=O)NC(=O)c2cc(OCC(F)(F)F)c(C3CCC3)cn2)no1 (single isomer, unassigned) [Example 125, 5-cyclobutyl-N-[1-methyl-1-(5-methyl-1,2,4-oxadiazol-3-yl)-2-methylsulfonyl-ethyl]-4-(2,2,2-trifluoroethoxy)pyridine-2-carboxamide]",,0.011,> 10,,
"Cc1nc(C(C)(CS(C)(=O)=O)NC(=O)c2cc(OCC(F)(F)F)c(C3(F)COC3)cn2)no1 (single isomer, unassigned) [Example 132, 5-(3-fluorooxetan-3-yl)-N-[2-(5-methyl-1,2,4-oxadiazol-3-yl)-1-methylsulfonylpropan-2-yl]-4-(2,2,2-trifluoroethoxy)pyridine-2-carboxamide]",,,,> 10,0.333
"Cc1nc(C(C)(CS(C)(=O)=O)NC(=O)c2cc(OCC(F)(F)F)c(C3(F)COC3)cn2)no1 (single isomer, unassigned) [Example 133, 5-(3-fluorooxetan-3-yl)-N-[2-(5-methyl-1,2,4-oxadiazol-3-yl)-1-methylsulfonylpropan-2-yl]-4-(2,2,2-trifluoroethoxy)pyridine-2-carboxamide]",,,> 10,,0.568
"Cc1nc(C(C)(CC2CC2)NC(=O)c2cc(OCC(F)(F)F)c(C3(F)COC3)cn2)no1 (single isomer, unassigned) [Example 135, N-[1-cyclopropyl-2-(5-methyl-1,2,4-oxadiazol-3-yl)propan-2-yl]-5-(3-fluorooxetan-3-yl)-4-(2,2,2-trifluoroethoxy)pyridine-2-carboxamide]",> 10,0.144,,,
"Cc1nc(C(C)(CC2CC2)NC(=O)c2cc(OCC(F)(F)F)c(C3(F)COC3)cn2)no1 (single isomer, unassigned) [Example 136, N-[1-cyclopropyl-2-(5-methyl-1,2,4-oxadiazol-3-yl)propan-2-yl]-5-(3-fluorooxetan-3-yl)-4-(2,2,2-trifluoroethoxy)pyridine-2-carboxamide]",,0.125,> 10,,
"Cc1nc(C(C)(CO)NC(=O)c2cc(OCC(F)(F)F)c(C3CC3)cn2)no1 (single isomer, unassigned) [Example 140, 5-cyclopropyl-N-[1-hydroxy-2-(5-methyl-1,2,4-oxadiazol-3-yl)propan-2-yl]-4-(2,2,2-trifluoroethoxy)pyridine-2-carboxamide]",> 10,0.511,,,
"Cc1nc(C(C)(CO)NC(=O)c2cc(OCC(F)(F)F)c(C3CC3)cn2)no1 (single isomer, unassigned) [Example 141, 5-cyclopropyl-N-[1-hydroxy-2-(5-methyl-1,2,4-oxadiazol-3-yl)propan-2-yl]-4-(2,2,2-trifluoroethoxy)pyridine-2-carboxamide]",,0.0968,> 10,,
"Cc1nc(C(C)(CC2CC2)NC(=O)c2cc(OCC(F)F)c(C3CC3)cn2)no1 (single isomer, unassigned) [Example 154, 5-cyclopropyl-N-[1-cyclopropyl-2-(5-methyl-1,2,4-oxadiazol-3-yl)propan-2-yl]-4-(2,2-difluoroethoxy)pyridine-2-carboxamide]",> 10,0.0037,,,
"Cn1nnnc1C(NC(=O)c1cc(OCC(F)(F)F)c(C2CC2)cn1)C(C)(C)C (centres unmarked) [Example 164, 5-cyclopropyl-N-[2,2-dimethyl-1-(1-methyltetrazol-5-yl)propyl]-4-(2,2,2-trifluoroethoxy)pyridine-2-carboxamide]",,0.0168,,,
